Test results reported in patent publication US11179471B2, “Peptide for cytosolic delivery” (priority 2017, dated 2021).
Entries after “also recorded” stand apart in the source; their conditions may differ. Read-outs that look alike come from different tables or passages of the source. Non-standard residues stand in square brackets, D forms with d. No end group written: not given here. hArg = N=C(N)NCCCC[C@H](N)C(=O)O; Aad = N[C@@H](CCCC(=O)O)C(=O)O

Key:
[1] = Helix content from CD spectra in the presence of POPC/POPG (3:1) liposomes; type: physicochemical; details: result in words (FIG. 1)
Method: The helix content was calculated by the method of Y. H. Chen et al., 1972, based on 222-nm molar ellipticity ([…]) using the following formula: Helicity (%)=−([θ]222+2340)/30300*100.
The helix content of the peptides obtained in Example 1 (L17E, L17E/Q21E, L17Aad, HA/E1, HA/E2, and HAad) was calculated in the presence of POPC/POPG (3:1) liposomes by the method of Y. H. Chen et al., 1972, based on 222-nm molar ellipticity ([θ]222) using the following formula: Helix content (%)=−([θ]222+2340)/30300*100. Further, the CD spectra of the peptides were measured.

HeLa cells [2] = experiment: Release of Alexa 488-dextran (10 kDa) into the cytoplasm, confocal microscopy; type: cell-based
Method: Cells; HeLa, peptides; 40 μM, Alexa 488-dextran (10 kDa); 200 μg/mL, treatment; 1 hr in α-MEM(−).
Cells; HeLa, peptides; 40 μM, Alexa 488-dextran (10 kDa); 200 μg/mL, treatment; 1 hr in α-MEM(−). The results are presented as means ±SE (n=3). **; p<0.01 (Student's t-test).
Cells; HeLa, peptides; 40 μM, Alexa 488-dextran (10 kDa); 200 μg/mL, treatment; 1 hr in α-MEM(−). Results are presented as means±SE (n=3). *; p<0.05, **; p<0.01, ***; p<0.001 (one-way ANOVA followed by the Tukey-Kramer honestly significant difference test (post-hoc test)).
(§1) In the presence of each peptide obtained in Example 1 (L17E, L17E/Q21E, HA/E1, HA/E2) (40 μM) or in the absence of the peptides (a control, no peptide), HeLa cells and Alexa 488-dextran (Molecular Probes, 10 kDa) (200 μg/mL) were treated in α-MEM(−) for 1 hour. The cells were washed, and observed with a confocal microscope.
as §1, with “L17Aad)” for “L17E/Q21E, HA/E1, HA/E2)”
as §1, with “(HAad, HA/E2, L17Aad, L17E)” for “(L17E, L17E/Q21E, HA/E1, HA/E2)”
When HeLa cells were incubated with Alexa 488-dextran (10 kDa) (200 μg/mL) as a macromolecular drug model in the presence of HAad (40 μM) in α-MEM(−) for 1 hour, Alexa 488-dextran release into about 75% of cells (cytosol) was observed. In contrast, when the incubation was performed in the presence of L17E, Alexa 488-dextran release into about 50% of the cells was observed.
HeLa cells, Alexa 488-dextran (Molecular Probes, 10 kDa) (200 μg/mL), and HAad; or HeLa cells, Alexa 488-dextran, (Molecular Probes, 10 kDa) (200 μg/mL), and HAad-homoR (20 μM) were treated in α-MEM(−) for 1 hour. The cells were washed, and observed with a confocal microscope.

NIH3T3 cells = experiment: Intracellular release of dextran (10 kDa) in NIH3T3 cells; type: cell-based; details: peptide 40 μM, dextran (10 kDa), DEME(−) medium 1 hour
Method: Intracellular release of dextran is more difficult in NIH3T3 cells than in HeLa cells. NIH3T3 cells and dextran (10 kDa) were incubated in the presence of HAad, HA/E2, or L17E (40 μM each) in DEME(−) medium for 1 hour in the same manner as in Example 6.

HeLa cells [3] = experiment: Intracellular release of Alexa 488-labeled human immunoglobulin (IgG, circa 160 kDa); type: cell-based; details: for cells in which intracellular release of human immunoglobulin was observed: α-MEM(−) 1 hour
Method: The cells and human immunoglobulin fluorescently labeled with Alexa 488 (IgG, circa 160 kDa) (500 μg/mL) were incubated in the presence of HAad, HA/E2, or L17E (40 μM each) in α-MEM(−) medium for 1 hour in the same manner as in Example 6.
The cells and human immunoglobulin fluorescently labeled with Alexa 488 (IgG, circa 160 kDa) (50 μg/mL: 1/10 the volume of Example 8) were incubated in the presence of HAad or L17E (40 μM each) in α-MEM(−) medium for 1 hour.
In the presence of HAad or L17E (20 μM each: ½ the amount used in Examples 8 and 9), the cells and human immunoglobulin fluorescently labeled with Alexa 488 (IgG, circa 160 kDa) (500 μg/mL: the same amount as in Example 8) were incubated in α-MEM(−) medium for 1 hour. […] (In FIG. 9, the intracellular release achieved by treatment with a low concentration of HAad was 2.5 times the release achieved by L17E. With respect to the peptide concentration required to detect the signal of intracellularly released human immunoglobulin in 35% of the cells, the concentration of L17E is 40 μM, and the concentration of HAad is 20 μM, which is half the concentration of L17E.)

[4] = tested on: HeLa cells transfected with a plasmid encoding loxP-DsRed-loxP-EGFP; experiment: Genetic recombination assay by intracellular delivery of Cre protein (EGFP expression); type: cell-based; details: for proportion of GFP-expressing cells: Cre-His6 10 μM, peptide 40 μM, 1 hour, then 24 hours in α-MEM(+); for increase of genetic recombination as compared with no peptide administration: EGFP expression with no release peptide was 9%
Method: HeLa cells transfected with a plasmid encoding loxP-DsRed-loxP-EGFP, which were prepared in the same manner as in the Examples of PTL 2, were incubated with His-tag fusion Cre (Cre-Hiss) (10 μM) in the presence of HAad, HA/E2, or L17E (40 μM each) for 1 hour. This system was designed to express EGFP when intracellular release of Cre protein induces genetic recombination. […] The proportions of GFP-expressing cells in the cells treated with HAad, HA/E2, and L17E were 41%, 36%, and 30%, respectively. Considering the fact that the EGFP expression efficiency achieved with no administration of a release peptide was 9%, peptide administration of HAad, HA/E2, and L17E can be considered to increase genetic recombination by 32%, 27%, and […], respectively, as compared with no peptide administration.

[5] = tested on: mitochondrial membrane of HeLa cells
Description: Mitochondrial membranes are considered to be rich in acidic lipid, as compared with cell membranes. Accordingly, the effects of the above peptides on a mitochondrial membrane were examined by JC-1 assay. A JC-1 reagent emits red (J-aggregate) fluorescence when the mitochondrial membrane is kept normal and the membrane potential is maintained; and the JC-1 reagent emits green (J-monomer) fluorescence when the mitochondrial membrane is damaged and the membrane potential is not kept normal. After HeLa cells were incubated with HAad, HA/E2, or L17E (40 μM) in α-MEM(−) for 1 hour, JC-1 assay was performed. The percentage of cells that emitted red fluorescence was assayed by flow cytometry.

[6] = Cell viability 24 hours after peptide treatment in the presence of serum (WST-8); type: cell-based; details: cells (cell line not given); peptide 10 μM, 20 μM and 40 μM; α-MEM(+) 24 hours; WST-8
Method: (§2) After the cells were incubated in the presence of HAad, HA/E2, or L17E (each 10 μM, 20 μM, and 40 μM) in α-MEM(+) medium for 24 hours, the cell viability (%) was evaluated by WST-8 assay (FIG. 14). The cell viability (%) after 24 hours with the use of any peptide at any concentration was almost 100%.

cells = experiment: as above; type: cell-based; details: 10-40 μM; α-MEM(+) 24 hours
Method: as §2

HeLa cells [7] = experiment: Nuclear accumulation of NLS-EGFP; type: cell-based; details: NLS-EGFP 10 μM; peptide 40 μM; α-MEM(−) 1 hour
Method: The cells and NLS-EGFP (10 μM) were incubated in the presence of HAad or L17E (40 μM each) in α-MEM(−) medium for 1 hour in the same manner as in Example 6. If NLS-EGFP is intracellularly released while maintaining its activity, localization of green fluorescence in the nuclei is observed. […] A high activity of HAad to release endosome-encapsulated substances was also confirmed in this system.

HeLa cells [8] = experiment: Release of Alexa 488-dextran (10 kDa) into the cytoplasm, confocal microscopy; type: cell-based; details: Alexa 488-dextran (10 kDa) 200 μg/mL, 1 hour, read-out: peptide concentration required to detect the signal of intracellularly released Alexa 488-dextran in 50% of the cells
[9] = HeLa, 40 μM, 1 hour in α-MEM(−), Lipofectamine LTX/pCI complex overnight in α-MEM(+)

H-IWLTALKFLGKAAAKAEAKQELSKL-NH2 [HA/E2, IWLTALX^5FLGX^6AAAX^7AEAX^8QELSX^9L-amide]
helicity in the presence of an acidic lipid membrane [1]: high helicity | endosome-encapsulated substance (Alexa 488-dextran) releasing activity, in words (HeLa cells [2]; peptide 40 μM, Alexa 488-dextran 200 μg/mL, 1 hr, compared with L17E): higher endosomal content release activity than L17E; also recorded: Significant outflow; also recorded: equivalent to that of HA/E1; also recorded: significantly higher endosome-encapsulated substance releasing activity than L17E | cells in which intracellular release of dextran was observed (NIH3T3 cells): ~25% | cells in which intracellular release of human immunoglobulin was observed (HeLa cells [3]; peptide 40 μM, IgG 500 μg/mL): ~45% | proportion of GFP-expressing cells [4]: 36% | increase of genetic recombination as compared with no peptide administration [4]: 27% | effect on mitochondrial membrane (cells emitting red JC-1 fluorescence), in words [5, 9]: no significant difference from the untreated case | viability at 24 h [6]: ~100% | toxicity, in words (cells): no significant toxicity

IWLTALKFLGKHAAKHEAKQQLSKL-NH2 [L17E, IWLTALX^5FLGX^6HAAX^7HEAX^8QQLSX^9L-amide, reference compound]
cells in which Alexa 488-dextran release into the cytosol was observed (HeLa cells [2]; peptide 40 μM, Alexa 488-dextran (10 kDa) 200 μg/mL, 1 hour in α-MEM(−)): about 50% | cells in which intracellular release of dextran was observed (NIH3T3 cells): ~17% | peptide concentration required to detect the signal of intracellularly released human immunoglobulin in 35% of the cells (HeLa cells [3]; IgG 500 μg/mL, 1 hour): 40 µM | cells in which intracellular release of human immunoglobulin was observed (HeLa cells [3]; peptide 20 μM, IgG 500 μg/mL): about 15% | cells in which intracellular release of human immunoglobulin was observed (HeLa cells [3]; peptide 40 μM, IgG 50 μg/mL): about 10% | cells in which intracellular release of human immunoglobulin was observed (HeLa cells [3]; peptide 40 μM, IgG 500 μg/mL): ~35% | proportion of GFP-expressing cells [4]: 30% | increase of genetic recombination as compared with no peptide administration [4]: 22% | effect on mitochondrial membrane (cells emitting red JC-1 fluorescence), in words [5, 9]: decreased slightly | cells in which localization of NLS-EGFP in the nuclei was observed (HeLa cells [7]): ~56% | viability at 24 h [6]: ~100% | toxicity, in words (cells): no significant toxicity | EC50 (HeLa cells [8]): 40 µM

H-IWLTALZFLGZAAAZAXAZQXLSZL-amide (H-IWLTAL[hArg]FLG[hArg]AAA[hArg]A[Aad]A[hArg]Q[Aad]LS[hArg]L-NH2; SMILES CC[C@H](C)[C@H](N)C(=O)N[C@@H](Cc1c[nH]c2ccccc12)C(=O)N[C@@H](CC(C)C)C(=O)N[C@H](C(=O)N[C@@H](C)C(=O)N[C@@H](CC(C)C)C(=O)N[C@@H](CCCCNC(=N)N)C(=O)N[C@@H](Cc1ccccc1)C(=O)N[C@@H](CC(C)C)C(=O)NCC(=O)N[C@@H](CCCCNC(=N)N)C(=O)N[C@@H](C)C(=O)N[C@@H](C)C(=O)N[C@@H](C)C(=O)N[C@@H](CCCCNC(=N)N)C(=O)N[C@@H](C)C(=O)N[C@@H](CCCC(=O)O)C(=O)N[C@@H](C)C(=O)N[C@@H](CCCCNC(=N)N)C(=O)N[C@@H](CCC(N)=O)C(=O)N[C@@H](CCCC(=O)O)C(=O)N[C@@H](CC(C)C)C(=O)N[C@@H](CO)C(=O)N[C@@H](CCCCNC(=N)N)C(=O)N[C@@H](CC(C)C)C(N)=O)[C@@H](C)O; listed as Lycosa carolinensis) [HAad-homoR]
cells in which release of Alexa 488-dextran into the cytoplasm was observed (HeLa cells [2]; peptide 20 μM, Alexa 488-dextran (10 kDa) 200 μg/mL, 1 hour in α-MEM(−)): 75%

N#CC(C#N)=NNc1ccc(OC(F)(F)F)cc1 [FCCP, carbonyl cyanide-p-trifluoromethoxyphenylhydrazone, reference compound]
effect on mitochondrial membrane (cells emitting red JC-1 fluorescence), in words [5]: changed to emit green fluorescence
